Measurements published in patent US12318358B2, “Probenecid for use in treating epileptic diseases, disorders or conditions” (PARIS SCIENCES ET LETTRES—QUARTIER LATIN, priority 2017, dated 2025).

Columns and labels:
[1] = test system: kainate (KA) mouse model of chronic temporal lobe epilepsy; test: Telemetric EEG recording of spontaneous seizures in kainate (KA) mouse model of chronic temporal lobe epilepsy; type: in vivo, C57BL/6j male mice; conditions: for Seizure duration / Seizure frequency: 200 mg/kg i.p. single injection, n = 5
Experimental: Six weeks old C57BL/6j male mice were injected unilaterally with kainate (KA; 0.05 μl, 20 mM in saline) at a rate of 0.5 μl/min in the CA1 area of the right hippocampus (−2 mm anteroposterior, +1.5 mm lateral, −1.4 mm dorso-ventral) by mean of a stereotaxic apparatus and a cannula (0.29 mm diameter) connected to a precision pump. Mice were then left 3 weeks for settling of the chronic epileptic phenotype.
EEG experiments were carried out using wireless ETA-F 10 transmitters (DataSciences International, USA) for chronic EEG recording and video monitoring 3 weeks after KA injection. After anesthesia (ketamine, 95 mg/kg; xylazine, 10 mg/kg; i.p.), a 1 cm midline sagittal incision was made starting above the skull midline and extending along the neck to create a pocket for subcutaneous placement of the transmitter along the dorsal flank of the animal. The recording flexible electrodes (stereotaxic coordinates: −2 mm anteroposterior, +1.5 mm and −1.5 mm lateral) were implanted subdurally through small holes drilled in the skull and held in place with dental cement. Mice were implanted with wireless ETA-F10 transmitters 2 weeks after the KA injection and were allowed to recover for 7 days before recording.
EEG signal was collected through DSI radiofrequency receivers placed under each cage. EEG data were acquired at a sampling rate of 200 Hz using the DSI Dataquest A.R.T. system (version 4.33). To assess therapeutic potential of probenecid, KA mice were recorded with ETA-F10 DSI EEG electrodes for 48 h in their home cage, injected with probenecid (200 mg/kg in corn oil, Sigma-Aldrich; i.p.) and recorded for 24 hours post-treatment. Analysis of seizures was performed using the NeuroScore software (Data Sciences International, USA); seizures were detected on the EEG as spike trains with a minimal amplitude of 1.5× baseline and a minimal duration of 5 s at a frequency ≥1 Hz (Bergstrom et al., Sci Rep. 2013; 3:1483. doi: 10.1038/srep01483). Artifacts were automatically detected using a high detection threshold and removed manually.
To further assess the therapeutic potential of probenecid, we tested the in vivo effect of probenecid i.p. in a kainate (KA) mouse model of chronic temporal lobe epilepsy. To do so, electroencephalogram (EEG) of KA mice were recorded before (48 hours) and after (24 hours) probenecid administration (200 mg/kg) (FIG. 1C).

[2] = test system: human epileptic cortical slices; test: Multi-electrode array (MEA) recordings of ictal-like discharges in human epileptic cortical slices in pro-epileptic conditions; type: cell-based
Experimental: The resected cortical block was prepared according to Dossi et al. (J Vis Exp. 2014 Oct. 26; (92):e51870). Briefly, post-surgical tissue was transported in a cold solution containing (in mM) 250 D-sucrose, 25 NaHCO3, 3 KCl, 1 CaCl2, 10 MgCl2 and 10 D-glucose, and oxygenated with carbogen (95% O2 and 5% CO2). Meninges, blood clots and vessels were gently removed and transverse cortical slices (400 μm-thick) were cut with a vibratome (HM650V, Microm Microtech, France). They were maintained at 37° C., equilibrated with 95% 02 and 5% CO2, in an interface chamber, continuously perfused with an artificial cerebro-spinal fluid (ACSF) containing (in mM) 124 NaCl, 3 KCl, 26 NaHCO3, 1.6 CaCl2, 1.3 MgCl2 and 10 D-glucose at 2 ml/min, for at least 1 hour before recording.
Cortical slices were transferred on planar MEA petri dishes (200-30 ITO electrodes, organized in a 12×12 matrix, with internal reference, 30 μm diameter and 200 μm inter-electrode distance; Multichannel Systems, Germany). They were kept in place using a platinum anchor and continuously perfused at a rate of 5-6 ml/min with ACSF.
Pictures of cortical slices on MEAs were acquired with a video microscope table (MEA-VMT1; Multichannel Systems, Germany) through MEA_Monitor software (Multichannel Systems, Germany) to identify the location of the electrodes relatively to the pial surface of the slices. Data were sampled at 10 kHz and the slice activity was recorded at 37° C. by a MEA2100-120 system (bandwidth 1-3000 Hz, gain 5×; Multichannel Systems, Germany) through MC_Rack 4.5.1 software (Multichannel systems, Germany) The activity of the slices was recorded in ACSF containing (in mM) 124 NaCl, 3 KCl, 26 NaHCO3, 1.6 CaCl2, 1.3 MgCl2 and 10 D-glucose (Ct ACSF) and in high potassium, magnesium-free pro-epileptic ACSF containing (in mM) 6 KCl, 0 Mg^2+ (6K 0Mg-ACSF).
To investigate whether probenecid medication could be used as a treatment for epileptic seizures, the electrophysiological activity of human epileptic cortical slices was recorded in pro-epileptic conditions, before and after probenecid administration (1 mM, 30 minutes).

[3] = 20-24 hours post-treatment, single injection 200 mg/kg i.p.
[4] = probenecid 1 mM, 30 minutes, pro-epileptic ACSF (6K 0Mg), n = 6 slices

CCCN(CCC)S(=O)(=O)c1ccc(C(=O)O)cc1 [Probenecid, 4-(dipropylsulfamoyl)benzoic acid]
Seizure duration ([1]; 4-8 h post-treatment): no seizure detected
Seizure frequency ([1]; 4-8 h post-treatment): no seizure detected
Effect on spontaneous seizures ([1]; 4 to 8 hours post-treatment, single injection 200 mg/kg i.p., in all mice tested): completely blocked
Duration of reappeared seizures versus pre-treatment [1, 3]: significantly shorter duration
Mice in which seizures reappeared [1, 3]: 2 of 5
Seizure duration ([1]; 20-24 h post-treatment): 3.6 ± 2.25 s
Seizure frequency ([1]; 20-24 h post-treatment): 1.2 ± 0.97 seizure/4 h
Effect on IDs (FIG. 1A example recording) ([2]; PBN 1 mM, 30 min, PIDs do not disappear): disappear
human cortical slices in which ictal-like discharges (IDs) were fully inhibited ([2]; probenecid 1 mM, 30 minutes): 5 out of 6
ID duration [2, 4]: 7.59 ± 7.59 s
ID frequency [2, 4]: 0.03 ± 0.03 IDs/min
ID duration in the remaining slice ([2]; probenecid 1 mM, 30 minutes, the one slice not fully inhibited): halved
